Here are results for eleven molecules from ChEMBL document CHEMBL1201862, “PubChem BioAssay data set” (2004).

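Grown in 96-well plates, cells were treated for 48 hours with each compound at five concentrations. Insufficient inhibition: endpoint recorded as highest concentration tested. GI50 is the concentration that inhibits growth by half.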 Active and inactive are the calls of the source. Rule as the data show it: active = GI50 up to about 1.1 µM and inactive = higher. Where a SMILES comes first, the peptide text is derived from it. The star is where a group is joined. Boc = CC(C)(C)OC(=O)*; Bn = c1ccc(C*)cc1

Some test systems named below: 786-0; CCRF-CEM; HCT-15; HL-60; HOP-62; HOP-92; HT-29; NCI-H23; OVCAR-3; RPMI-8226; SF-268; SF-295; SN12C; SNB-19; SW-620; UO-31; DU-145; MDA-MB-231; MDA-N; NCI/ADR-RES.
Assay in all cases: NCI-60 cell line screen, 48 h

For the molecule `O/N=C1\CCCCC1C(NO)c1ccccc1` (stereo not drawn), the GI50 is > 100 µM (inactive) in the test with 786-0; > 100 µM (inactive) in the test with CCRF-CEM; > 100 µM in the test on HCT-15; 57.7 µM (inactive) in the test with HL-60; > 100 µM (inactive) in the test on HOP-62; 42.7 µM (inactive) in the test on HOP-92. The GI50 in the test on HT-29 is > 100 µM (inactive); in the test on NCI-H23 it was > 100 µM (inactive); in the test with OVCAR-3, > 100 µM (inactive); with RPMI-8226, > 100 µM (inactive); with SF-268 it was 98.9 µM (inactive); in the test with SF-295, > 100 µM (inactive). For the same molecule, the GI50 with SN12C was > 100 µM (inactive); with SNB-19 it was > 100 µM (inactive); in the test with SW-620, > 100 µM (inactive); in the test with UO-31 it was 89.5 µM (inactive).

With `Cc1ccc(C(=O)Nc2ccc(S(=O)(=O)O)c3cc(S(=O)(=O)O)cc(S(=O)(=O)O)c23)cc1NC(=O)Nc1cc(C(=O)Nc2ccc(S(=O)(=O)O)c3cc(S(=O)(=O)O)cc(S(=O)(=O)O)c23)ccc1C`, the GI50 with 786-0 was > 87.5 µM (inactive); in the test on CCRF-CEM, > 87.5 µM (inactive); with DU-145 it was > 87.5 µM (inactive); in the test with HCT-15, > 87.5 µM; in the test with HL-60, > 87.5 µM (inactive); in the test with HOP-62 it was > 87.5 µM (inactive). Moreover, the GI50 in the test with HT-29, in the test with MDA-MB-231, with MDA-N, in the test with NCI-H23, in the test on OVCAR-3 and with RPMI-8226 was > 87.5 µM (inactive) throughout. The GI50 with SF-268, with SN12C, with SNB-19, in the test on SW-620 and with UO-31 was > 87.5 µM (inactive) each time.

`COC(=O)CCCC(=O)C1=NN(c2ccc(Cl)cc2)Cc2ccccc2N1`: the GI50 in the test with 786-0 was 17.6 µM (inactive); in the test on CCRF-CEM, > 100 µM (inactive); in the test with DU-145 it was > 100 µM (inactive); with HCT-15 it was 95.1 µM; in the test with HOP-62 it was 60.5 µM (inactive); with HOP-92, > 100 µM (inactive). Further, the GI50 in the test with HT-29 was 98.6 µM (inactive); in the test on MDA-MB-231 it was > 100 µM (inactive); in the test with NCI-H23 it was > 100 µM (inactive); in the test on NCI/ADR-RES, 79.4 µM (inactive); with OVCAR-3 it was 93.8 µM (inactive); in the test on RPMI-8226, > 100 µM (inactive). In addition, the GI50 in the test on SF-268, in the test on SF-295, in the test on SN12C, in the test with SNB-19, in the test on SW-620 and with UO-31 was > 100 µM (inactive) in each case.

With `CCCCCCCCCCCCCCCCCCNc1ccn(C2OC(COP(=O)(O)OCCCCCCCCCCCCCCCC)C(O)C2O)c(=O)n1` (stereo not drawn), the GI50 is > 100 µM (inactive) with 786-0; 77.8 µM (inactive) in the test on CCRF-CEM; > 100 µM (inactive) with DU-145; > 100 µM in the test with HCT-15; 58.3 µM (inactive) in the test with HL-60; > 100 µM (inactive) in the test with HOP-62. For the same molecule, the GI50 in the test on HOP-92, in the test on HT-29, in the test on MDA-MB-231, in the test with NCI-H23, in the test with NCI/ADR-RES and with OVCAR-3 was > 100 µM (inactive) throughout. For the same molecule, the GI50 in the test on RPMI-8226, in the test with SF-268, in the test on SF-295, in the test on SN12C, with SNB-19 and with SW-620 was > 100 µM (inactive) throughout. Also, the GI50 in the test on UO-31 is > 100 µM (inactive).

With `Brc1ccc2c(C3CN[C@@H](c4c[nH]c5cc(Br)ccc45)CN3)c[nH]c2c1` (stereo partly drawn), the GI50 was 2.89 µM (inactive) in the test on 786-0; 2.65 µM (inactive) in the test on CCRF-CEM; 3.61 µM with HCT-15; 2.42 µM (inactive) in the test with HL-60; 3.94 µM (inactive) with HOP-62; 1.66 µM (inactive) in the test with HOP-92. Further, the GI50 with HT-29 was 2.79 µM (inactive); with NCI-H23, 2.34 µM (inactive); with OVCAR-3, 6.03 µM (inactive); in the test on RPMI-8226, 1.89 µM (inactive); with SF-268 it was 4.78 µM (inactive); with SF-295, 3.4 µM (inactive). In addition, the GI50 with SN12C was 5.25 µM (inactive); in the test with SNB-19 it was 9.46 µM (inactive); in the test with SW-620, 2.48 µM (inactive); in the test with UO-31, 5.68 µM (inactive).

Regarding `COC(=O)C(CC(C)C)NC(=O)C(C)NC(=O)C(Cc1ccc(OCc2ccccc2)cc1)NC(=O)C(COCc1ccccc1)NC(=O)OC(C)(C)C` (stereo not drawn) (Boc-S(Bn)Y(Bn)AL-OMe; configuration not given here), the GI50 in the test on 786-0 is > 100 µM (inactive); in the test with DU-145 it was > 100 µM (inactive); with HL-60, 41.2 µM (inactive); in the test with HOP-62, > 100 µM (inactive); in the test on HOP-92 it was > 100 µM (inactive); in the test on HT-29, > 100 µM (inactive). In addition, the GI50 with MDA-N, with NCI-H23, in the test on NCI/ADR-RES, in the test with OVCAR-3, with RPMI-8226 and in the test with SF-268 was > 100 µM (inactive) in each case. Besides, the GI50 in the test with SF-295, in the test with SN12C, with SNB-19, in the test on SW-620 and with UO-31 was > 100 µM (inactive) each time.

Turning to `c1ccc(CSc2nc3ccccc3nc2-c2cccs2)cc1`, the GI50 in the test on 786-0 was > 100 µM (inactive); with CCRF-CEM, 92.9 µM (inactive); in the test on HCT-15, > 100 µM; with HL-60, > 100 µM (inactive); in the test with HOP-62, > 100 µM (inactive); with HOP-92, > 100 µM (inactive). The GI50 with HT-29, in the test with NCI-H23, with OVCAR-3, in the test with RPMI-8226, in the test on SF-268 and in the test with SF-295 was > 100 µM (inactive) each time. For the same molecule, the GI50 in the test with SN12C, with SNB-19 and in the test on UO-31 was > 100 µM (inactive) each time.

For `CC(C)CC(=O)CC(C)[C@]1(CCCOCc2ccccc2)C(=O)N2CCC3(C[C@@]24CCC[C@H]41)OCCO3` (stereo partly drawn), the GI50 with 786-0 is > 10 µM (inactive); with CCRF-CEM it was > 10 µM (inactive); in the test on HCT-15 it was > 10 µM; in the test with HL-60 it was > 10 µM (inactive); in the test with HOP-62, > 10 µM (inactive); in the test with HOP-92, > 10 µM (inactive). Also, the GI50 with MDA-MB-231, in the test with MDA-N, with NCI-H23, with NCI/ADR-RES, in the test on OVCAR-3 and with RPMI-8226 was > 10 µM (inactive) throughout. The GI50 with SF-268, in the test on SF-295, with SN12C, in the test on SNB-19, with SW-620 and with UO-31 was > 10 µM (inactive) throughout.

With `COC(=O)C1=Cc2cc3c(cc2[C@H](c2ccc4c(c2)OCO4)C1C(=O)OC)OCO3` (stereo partly drawn), the GI50 in the test with 786-0 is > 100 µM (inactive); in the test on CCRF-CEM, > 100 µM (inactive); in the test on HCT-15, > 100 µM; in the test with HL-60, 65.6 µM (inactive); with HOP-62, > 100 µM (inactive); in the test with HOP-92 it was 27.4 µM (inactive). In addition, the GI50 in the test with HT-29 is 36.2 µM (inactive); in the test with NCI-H23, > 100 µM (inactive); in the test on OVCAR-3, 44.9 µM (inactive); with RPMI-8226, > 100 µM (inactive); with SF-268, > 100 µM (inactive); with SF-295, 38.5 µM (inactive). In addition, the GI50 in the test with SN12C is > 100 µM (inactive); in the test with SNB-19, > 100 µM (inactive); with SW-620, 71.3 µM (inactive); in the test with UO-31 it was > 100 µM (inactive).

Turning to `COc1cc2nc(-c3cccs3)nc(Nc3ccccc3C(=O)NN)c2cc1OC`, the GI50 in the test on 786-0 was 95.7 µM (inactive); in the test on CCRF-CEM it was > 100 µM (inactive); with DU-145 it was > 100 µM (inactive); with HCT-15, > 100 µM; in the test on HL-60, 44.9 µM (inactive); in the test with HOP-62 it was > 100 µM (inactive). The GI50 in the test on HOP-92 was 21.6 µM (inactive); in the test on HT-29 it was > 100 µM (inactive); in the test on MDA-MB-231, > 100 µM (inactive); in the test with NCI-H23 it was > 100 µM (inactive); in the test on NCI/ADR-RES, > 100 µM (inactive); with OVCAR-3, 57.5 µM (inactive). For the same molecule, the GI50 in the test with RPMI-8226 is > 100 µM (inactive); in the test with SF-268 it was > 100 µM (inactive); with SF-295 it was 66.8 µM (inactive); with SN12C, > 100 µM (inactive); in the test with SNB-19, > 100 µM (inactive); in the test on SW-620 it was > 100 µM (inactive). Further, the GI50 in the test on UO-31 is > 100 µM (inactive).

On to `N#C/C(C(=O)Nc1ccc(Cl)cc1)=C(/N)N1CCCC1`, for which the GI50 was > 100 µM (inactive) in the test with 786-0; > 100 µM (inactive) in the test on CCRF-CEM; > 100 µM (inactive) in the test on DU-145; > 100 µM in the test on HCT-15; 0.635 µM (active) in the test with HL-60; > 100 µM (inactive) in the test with HOP-62. Also, the GI50 in the test on HOP-92, with MDA-N, in the test with NCI-H23, with NCI/ADR-RES, in the test on OVCAR-3 and with RPMI-8226 was > 100 µM (inactive) throughout. Besides, the GI50 in the test on SF-295, in the test on SN12C, with SNB-19, with SW-620 and in the test on UO-31 was > 100 µM (inactive) each time.
